How the values were obtained:
Type in all cases: cell-based, human
dermal fibroblasts [1] = test: Hyaluronan pericellular coat formation by dermal fibroblasts (particle exclusion assay); settings: TGF-β1 10 ng/ml, absence of PEP005, 24 h
Description: (§1) A normal adult skin biopsy (6 mm) was obtained (n=1), with informed consent, from an individual attending the Oral Surgery Clinic, School of Dentistry, Wales College of Medicine, Cardiff. Following the application of a local anaesthetic, the dermal biopsy was collected and adult dermal fibroblast cultures established by single cell suspension technique, following enzymic degradation of the specimen. This technique has previously been reliably used to establish viable primary cultures of both oral and dermal fibroblasts in vitro (Cook et al, 2000; Stephens et al, 2001; 2003). Dermal fibroblasts were cultured in Fibroblast-Serum Containing Medium, containing Dulbecco's Modified Eagle's Medium (DMEM), supplemented with L-glutamine (2 mM), antibiotics (100 U/ml) penicillin G sodium, […] streptomycin sulphate and 0.25 μg/ml amphotericin B) and 10% foetal calf serum (all purchased from Invitrogen Ltd., Paisley, U.K.). Dermal fibroblast cultures were maintained at 37° C., in a 5% CO2/95% air atmosphere, with the culture medium being changed every 2-3 days. Dermal fibroblasts were used between) passage 7-17, for all experiments.
Following trypsinization, dermal fibroblasts were seeded in 53 mm bacteriological grade culture dishes (VWR International Ltd., Leicestershire, U.K.), in PEP005-free, Fibroblast-Serum Containing Medium (2 ml), at a density of 7×10^4 cell/dish. Dermal fibroblasts were maintained at 37° C., in a 5% CO2/95% air atmosphere, overnight, prior to washing in PBS (2×2 ml) and maintenance in serum-free, Fibroblast-Serum Containing Medium (2 ml), containing 0 μg/ml, 0.01 μg/ml, 0.1 μg/ml, 1 μg/ml, 10 μg/ml or 100 μg/ml PEP005, +/−TGF-β1 (10 ng/ml) (three culture dishes per PEP005 concentration). A control was also established, consisting of cells in serum-free, Fibroblast-Serum Containing Medium, containing 1% DMSO. The dermal fibroblasts were maintained at 37° C., in a 5% CO2/95% air atmosphere, for 24 h or 72 h. At 24 h and 72 h, the culture dishes were treated with formalized horse blood erythrocytes (TCS Biosciences Ltd., Buckinghamshire, U.K.). The formalized horse blood erythrocytes were washed in PBS, to remove sodium azide (3×20 ml) and centrifuged at 100 g/7 min, at 4° C. The erythrocyte cell pellet obtained was re-suspended in serum-free, Fibroblast-Serum Containing Medium, to a density of 1×10^8 cells/ml. Aliquots of the erythrocyte cell suspension (500 μl) were supplemented to each culture dish and the dishes agitated, prior to maintenance at 37° C., in a 5% CO2/95% air atmosphere, for 15 min. Zones of erythrocyte exclusion were visualized by light microscopy, using a Zeiss Axiovery 135 Inverted Microscope (Carl Zeiss Ltd., Hertfordshire, U.K.), with a Hamamatsun C5985 chilled CCD camera (Hamamatsu Photonics U.K. Ltd., Hertfordshire, U.K.) and using Openlab Software 3.0.8 (Improvision Ltd., Warwickshire, U.K.). Each experiment was performed on three separate occasions.

dermal fibroblasts [2] = test: Hyaluronan synthesis by dermal fibroblasts (Hyaluronic Acid Quantitative Test Kit); settings: TGF-β1 10 ng/ml, absence of PEP005, 24 h
Description: as §1
Following trypsinization, dermal fibroblasts were seeded in 24-well tissue culture plates in PEP005-free, Fibroblast-Serum Containing Medium (1 ml), at a cell density of 2.5×10^4 cell/well. Dermal fibroblasts were maintained at 37° C., in a 5% CO2/95% air atmosphere, for 48 h, prior to maintenance in serum-free, Fibroblast-Serum Containing Medium (1 ml), for a further 48 h. At this stage, the serum-free, culture medium was replaced with Fibroblast-Serum Containing Medium (600 μl), containing 0 μg/ml, 0.01 μg/ml, 0.1 μg/ml, 1 μg/ml, 10 μg/ml or 100 μg/ml PEP005, +/−TGF-β1 (10 ng/ml) (three culture wells per PEP005 concentration). A control was also established, consisting of cells in serum-free, Fibroblast-Serum Containing Medium, containing 1% DMSO. The dermal fibroblasts were maintained at 37° C., in a 5% CO2/95% air atmosphere, for 24 h or 72 h, prior to culture medium removal. Hyaluronan synthesis in the collected culture media was quantified, using a Hyaluronic Acid Quantitative Test Kit (Corgenix U.K. Ltd., Cambridgeshire, U.K.), which utilizes a naturally occurring bovine binding protein to hyaluronan. Supernatants were assayed, as per manufacturer's instructions, and optical density measured using a spectrophotometer at 450 nm. Hyaluronan concentrations were determined by comparing the absorbance of the sample against a reference curve prepared from the reagent blank and standards. Each experiment was performed on three separate occasions.

HAS3 = HAS3 gene expression by dermal fibroblasts (qPCR); settings: TGF-β1 10 ng/ml
Description: as §1
(§2) Following trypsinization, dermal fibroblasts were seeded in 24-well tissue culture plates, in PEP005-free, Fibroblast-Serum Containing Medium (1 ml), at a cell density of 2.5×10^4 cell/well. Dermal fibroblasts were maintained at 37° C., in a 5% CO2/95% air atmosphere, overnight. At this stage, the culture medium was replaced with Fibroblast-Serum Containing Medium (600 μl), containing 0 μg/ml, 0.01 μg/ml, 0.1 μg/ml, 1 μg/ml, 10 μg/ml or 100 μg/ml PEP005, +/−TGF-β1 (10 ng/ml) (three culture wells per PEP005 concentration). A control was also established, consisting of cells in Fibroblast-Serum Containing Medium, containing 1% DMSO. The dermal fibroblasts were maintained at 37° C., in a 5% CO2/95% air atmosphere, for 24 h or 72 h, prior to washing in PBS (3×1 ml) and Trizol® Reagent (250 μl) added to the cells, for 5 min at room temperature, to induce cell lysis. RNA was extracted by the phenol-chloroform method, as described above, while a cDNA library was generated via random hexamer RT, as described above. RNA (1 μg) was added to 100 µM random hexamer (1 μl), 5×RT Buffer (4 μl), 2.5 mM Deoxynucleoside Triphosphates (dNTPs, 5 μl), 2 μl DTT and Nuclease-Free Water, were added to the reaction (total volume, 20 μl). To denature the RNA, reaction tubes were placed in a GeneAmp PCR System 9700 (Applied Biosystems, Cheshire, U.K.) and heated for 5 min/95° C., prior to cooling to 4° C. Superscript (1 μl) and RNAsin® Ribonuclease Inhibitor (1 μl, Promega, Hampshire, U.K.) were added to each tube, and the tubes subjected to […] at 20° C. for 10 min, 42° C. for 1 h and 95° C. for 5 min, prior to storage at 4° C., until required. As a negative control, RT was also performed, with Nuclease-Free Water replacing the RNA sample.
(§3) qPCR was performed, as described above, with the probe and primers for HAS1, HAS2 and HAS3 (target genes) and the 18s ribosomal RNA (reference gene), designed and supplied by Applied Biosystems. PCR was performed in a final volume of 20 μl/sample, with each reaction mix consisting of cDNA (1 μl), target gene primers and probe (1 μl), Taqman® FAST Universal PCR Master Mix (10 μl, Applied Biosystems), and Nuclease-Free Water (8 μl). PCR amplification was performed, using an initial cycle of 95° C. for 1 s, followed by 40 cycles of 60° C. for 20 s. A cDNA-free control was also included. Again, the comparative CT method was used for relative quantification of gene expression. Each experiment was performed on three separate occasions.

HAS1 = HAS1 gene expression by dermal fibroblasts (qPCR); settings: TGF-β1 10 ng/ml
Description: as §1, §2, §3

HAS2 = HAS2 gene expression by dermal fibroblasts (qPCR); settings: TGF-β1 10 ng/ml
Description: as §1, §2, §3

TGF-β1: TGF-β1 (10 ng/ml) added to dermal fibroblast cultures with or without PEP005 [reference compound]
hyaluronan pericellular coat formation (dermal fibroblasts [1]): slight increase | hyaluronan synthesis (dermal fibroblasts [2]): slight stimulation | HAS3 expression (HAS3; absence of PEP005, 24 h (p<0.01)): inhibitory effect | HAS3 expression (HAS3; absence of PEP005, 72 h): inhibitory effect | HAS1 expression (HAS1; absence of PEP005, 24 h, compared to control fibroblasts (p<0.001)): major up-regulation | HAS1 expression (HAS1; absence of PEP005, 72 h, compared to control fibroblasts): up-regulation | HAS2 expression (HAS2; absence of PEP005, 24 h): little effect | HAS2 expression (HAS2; absence of PEP005, 72 h (p>0.05)): minimal effects

Source: US10143638B2, “Method of treating skin with ingenol mebutate” (LEO Laboratories Limited, priority 2009, dated 2018)
